From patent US20170349638A1, “COMPANION DIAGNOSTIC TOOL FOR PEPTIDOMIMETIC MACROCYCLES” (AILERON Therapeutics, Inc., priority 2016, published 2017)
One block for each compound: values may come before it. Where a SMILES comes first, the peptide text is derived from it. Bridges are numbered along the chain shown (N, C = ends). [ ]: non-standard residue; d: D form. Trp(6-Cl) = N[C@@H](Cc1c[nH]c2cc(Cl)ccc12)C(=O)O; R8 = C=CCCCCCC[C@@](C)(N)C(=O)O; S5 = C=CCCC[C@](C)(N)C(=O)O; Ac3c = NC1(C(=O)O)CC1

Experiments:
[1] = test system: SJSA-1 cells; assay: Cell lysis by peptidomimetic macrocycles (LDH release); assay type: cell-based; conditions: 1 h incubation
Experimental: On the day of the assay, media was exchanged with RPMI 1% FBS media, 90 μl of media per well.
10 mM stock solutions of the peptidomimetic macrocycles were prepared in 100% DMSO.
The negative control (non-lytic) sample was 0.5% DMSO alone and positive control (lytic) samples include 10 uM Melittin and 1% Triton X-100.
Cell plates were incubated for 1 hour at 37° C. After the 1 hour incubation, the morphology of the cells is examined by microscope and then the plates were centrifuged at 1200 rpm for 5 minutes at room temperature. 40 μl of supernatant for each peptidomimetic macrocyle and control sample is transferred to clear assay plates.

[2] = test system: Caspase 3 activation in SJSA1 cells; assay: Caspase 3 detection assay; assay type: cell-based; conditions: 48 h, Caspase 3 activation over DMSO-treated cells
Experimental: Read on Synergy Biotek multiplate reader for luminescence. Data is analyzed as Caspase 3 activation over DMSO-treated cells.

[3] = molecular target: T1, MDMX (Homo sapiens, UniProt O15151); assay: Competitive fluorescence polarization assay MDMX; assay type: binding; conditions: Table 26B; competitive FP
T1 sequence (O15151 1-125): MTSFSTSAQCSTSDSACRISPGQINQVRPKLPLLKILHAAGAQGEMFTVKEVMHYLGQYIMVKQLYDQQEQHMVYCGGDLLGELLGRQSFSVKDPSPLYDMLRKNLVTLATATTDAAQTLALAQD
Experimental: Dilute MDMX (In-house, 40 kD) into FP buffer (High salt buffer—200 mM NaCl, 5 mM CHAPS, pH 7.5.) to make 300 nM (2×) working stock solution. • 2. Add 20 μl of 300 nM (2×) of protein stock solution into each well of 96-well black HE microplate (Molecular Devices) • 3. Dilute 1 mM (in 100% DMSO) of FAM labeled linear peptide with DMSO to 100 μM (dilution 1:10). Then, dilute from 100 μM to 10 μM with water (dilution 1:10) and then dilute with FP buffer from 10 μM to 40 nM (dilution 1:250). This is the working solution which will be a 10 nM concentration in well (dilution 1:4). Keep the diluted FAM labeled peptide in the dark until use. • 4. […] Dilute 10 mM (in 100% DMSO) with DMSO to 5 mM (dilution 1:2). Then, dilute from 5 mM to 500 μM with H2O (dilution 1:10) and then dilute with FP buffer from 500 μM to 20 μM (dilution 1:25). […] Transfer 10 μl of serial diluted unlabeled peptides to each well which is filled with 20 μl of 300 nM of protein. • 7. Add 10 μl of 10 nM (4×) of FAM labeled peptide into each well and incubate for 3 hr to read.

[4] = molecular target: MDM2 (Homo sapiens, UniProt Q00987); assay: Competitive fluorescence polarization assay for MDM2; assay type: binding; conditions: Table 26B, competitive FP; for Ki: read-out: Ki (MDM2)
Chain of MDM2 (Q00987 1-125): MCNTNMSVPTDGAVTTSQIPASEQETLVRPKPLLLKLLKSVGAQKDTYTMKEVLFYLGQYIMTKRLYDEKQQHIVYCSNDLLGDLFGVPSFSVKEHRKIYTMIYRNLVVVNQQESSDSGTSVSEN
Experimental: Dilute 1 mM (in 100% DMSO) of FAM labeled linear peptide with DMSO to 100 μM (dilution 1:10). Then, dilute from 100 μM to 10 μM with water (dilution 1:10) and then dilute with FP buffer from 10 μM to 40 nM (dilution 1:250). This is the working solution which will be a 10 nM concentration in well (dilution 1:4). Keep the diluted FAM labeled peptide in the dark until use. • 4. […] Dilute 10 mM (in 100% DMSO) with DMSO to 5 mM (dilution 1:2). Then, dilute from 5 mM to 500 μM with H2O (dilution 1:10) and then dilute with FP buffer from 500 μM to 20 μM (dilution 1:25). […] Add 10 μl of 10 nM (4×) of FAM labeled peptide into each well and incubate for 3 hr to read.

[5] = molecular target: HDM2 (Homo sapiens, UniProt Q00987); assay: FP Competition Blinding Assay | HDM2 IC50 (nM)
Chain of HDM2 (Q00987 whole entry, looked up): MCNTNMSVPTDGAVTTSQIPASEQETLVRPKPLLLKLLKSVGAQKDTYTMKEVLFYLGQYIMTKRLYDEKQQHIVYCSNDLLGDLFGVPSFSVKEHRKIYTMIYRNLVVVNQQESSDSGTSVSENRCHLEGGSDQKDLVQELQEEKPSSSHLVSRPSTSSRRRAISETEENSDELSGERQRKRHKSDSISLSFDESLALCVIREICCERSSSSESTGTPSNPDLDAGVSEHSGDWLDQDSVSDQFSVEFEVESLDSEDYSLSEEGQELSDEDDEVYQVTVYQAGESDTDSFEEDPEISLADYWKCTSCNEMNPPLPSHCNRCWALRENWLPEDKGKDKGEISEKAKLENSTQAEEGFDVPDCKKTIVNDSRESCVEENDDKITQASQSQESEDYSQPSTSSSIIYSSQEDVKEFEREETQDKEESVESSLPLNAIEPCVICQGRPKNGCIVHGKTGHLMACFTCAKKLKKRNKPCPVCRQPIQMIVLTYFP

[6] = molecular target: HDMx (Homo sapiens, UniProt O15151); assay: FP Competition Blinding Assay | HDMx IC50 (nM)
Chain of HDMx (O15151 whole entry, looked up): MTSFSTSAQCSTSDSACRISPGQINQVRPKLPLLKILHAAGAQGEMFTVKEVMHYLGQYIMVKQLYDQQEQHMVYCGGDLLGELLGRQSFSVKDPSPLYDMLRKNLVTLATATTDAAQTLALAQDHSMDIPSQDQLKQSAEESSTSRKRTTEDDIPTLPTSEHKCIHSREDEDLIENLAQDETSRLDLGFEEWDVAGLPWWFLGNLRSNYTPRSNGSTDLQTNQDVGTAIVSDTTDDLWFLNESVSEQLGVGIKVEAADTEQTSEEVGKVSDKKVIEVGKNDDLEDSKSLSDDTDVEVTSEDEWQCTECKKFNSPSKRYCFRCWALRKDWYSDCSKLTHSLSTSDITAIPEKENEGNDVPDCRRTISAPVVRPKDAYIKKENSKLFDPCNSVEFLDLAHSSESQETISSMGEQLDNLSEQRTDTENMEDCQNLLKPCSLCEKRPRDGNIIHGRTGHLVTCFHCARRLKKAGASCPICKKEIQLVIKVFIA

Compound: 287 (LTFAEYWAQAAAAIA; not fully specified; Ac, NH2, staple, difluoro-Phe, Cba; N-term Ac; MOD_RES (3)..(3): 3,4-difluoro-Phe; MOD_RES (4)..(4): Alpha-Me R-azide 1,4 triazole (6 carbon) alanine olefin amino acid connected by an all-carbon crosslinker comprising one double bond; misc_feature (4)..(11): C) [compound 287]
6.25 uM % Lysed cells (1 h LDH) [1]: 0% | 25 uM % Lysed cells (1 h LDH) [1]: 11% | 50 uM % Lysed cells (1 h LDH) [1]: 56% | caspase 0.3 uM ([2]; 0.3 uM): 1 | caspase 1 uM ([2]; 1 uM): 1 | caspase 3 uM ([2]; 3 uM): 3 | caspase 10 uM ([2]; 10 uM): 11 | caspase 30 uM ([2]; 30 uM): 23

Compound: 413 (LTFAXYWAQLAAALA; not fully specified; Ac, NH2, staple, Cou4, Nle; N-term Ac; MOD_RES (4)..(4): Alpha-Me R-azide 1,4 triazole (6 carbon) alanine olefin amino acid connected by an all-carbon crosslinker comprising one double bond; misc_feature (4)..(11): Crosslink between residues; MOD_RES () [compound 413]
6.25 uM % Lysed cells (1 h LDH) [1]: 5% | 25 uM % Lysed cells (1 h LDH) [1]: 3% | 50 uM % Lysed cells (1 h LDH) [1]: 3%

Compound: 414 (LTFAXYWAQLAAALA; not fully specified; Ac, NH2, staple, Cou4, Nle; N-term Ac; MOD_RES (4)..(4): Alpha-Me R-azide 1,4 triazole (6 carbon) alanine olefin amino acid connected by an all-carbon crosslinker comprising one double bond; misc_feature (4)..(11): Crosslink between residues; MOD_RES () [compound 414]
6.25 uM % Lysed cells (1 h LDH) [1]: 3% | 25 uM % Lysed cells (1 h LDH) [1]: 2% | 50 uM % Lysed cells (1 h LDH) [1]: 2%

IC50 [3]: < 0.01 µM | Ki [3]: < 0.01 µM | IC50 [4]: < 0.01 µM | Ki [4]: < 0.01 µM
Compound: CCCC[C@H](NC(=O)[C@H](C)NC(=O)[C@H](C)NC(=O)[C@]1(C)CCCc2cn(nn2)CCCCCC[C@@](C)(NC(=O)[C@H](Cc2ccccc2)NC(=O)[C@@H](NC(=O)[C@H](CC(C)C)NC(C)=O)[C@@H](C)O)C(=O)N[C@@H](C)C(=O)N[C@@H](Cc2ccc(O)cc2)C(=O)N[C@@H](Cc2c[nH]c3ccccc23)C(=O)N[C@@H](C)C(=O)N[C@@H](CCC(N)=O)C(=O)N[C@@H](CC(C)C)C(=O)N1)C(=O)N[C@@H](C)C(N)=O [SP449, Ac-LTF$4rn6AYWAQL$4a5AANleA-NH2]

Ki [3]: 0.01 to 0.1 µM | Ki [4]: < 0.01 µM
Compound: CC(=O)N[C@@H](CC(C)C)C(=O)N[C@H](C(=O)N[C@@H](Cc1ccccc1)C(=O)N[C@]1(C)CCCCCCn2nncc2CCC[C@@](C)(C(=O)N[C@@H](CO)C(=O)N[C@@H](C)C(=O)N[C@@H](C)C(N)=O)NC(=O)[C@H](CC2CCC2)NC(=O)[C@H](CCC(N)=O)NC(=O)[C@H](C)NC(=O)[C@H](Cc2c[nH]c3ccccc23)NC(=O)[C@H](Cc2ccc(O)cc2)NC(=O)[C@H](CCC(=O)O)NC1=O)[C@@H](C)O [SP456, Ac-LTF$5rn6EYWAQCba$5a5SAA-NH2]

Ki [3]: < 0.01 µM | Ki [4]: < 0.01 µM
Compound: CC(=O)N[C@@H](CC(C)C)C(=O)N[C@H](C(=O)N[C@@H](Cc1ccccc1)C(=O)N[C@]1(C)CCCCCCn2nnc(c2I)CCC[C@@](C)(C(=O)N[C@@H](CO)C(=O)N[C@@H](C)C(=O)N[C@@H](C)C(N)=O)NC(=O)[C@H](CC2CCC2)NC(=O)[C@H](CCC(N)=O)NC(=O)[C@H](C)NC(=O)[C@H](Cc2c[nH]c3ccccc23)NC(=O)[C@H](Cc2ccc(O)cc2)NC(=O)[C@H](CCC(=O)O)NC1=O)[C@@H](C)O [SP457, Ac-LTF$4rn6EYWAQCba5I-$4a5SAA-NH2]

Ki [3]: > 1 µM | Ki [4]: > 1 µM
Compound: CC(=O)N[C@@H](CC(C)C)C(=O)N[C@H](C(=O)N[C@@H](C)C(=O)N[C@]1(C)CCCCCCn2nncc2CCC[C@@](C)(C(=O)N[C@@H](CO)C(=O)N[C@@H](C)C(=O)N[C@@H](C)C(N)=O)NC(=O)[C@H](CC2CCC2)NC(=O)[C@H](CCC(N)=O)NC(=O)[C@H](C)NC(=O)[C@H](Cc2c[nH]c3ccccc23)NC(=O)[C@H](Cc2ccc(O)cc2)NC(=O)[C@H](CCC(=O)O)NC1=O)[C@@H](C)O [SP459, Ac-LTA$5rn6EYWAQCba$5a5SAA-NH2]

Ki [3]: > 1 µM | Ki [4]: > 1 µM
Compound: CC(=O)N[C@@H](CC(C)C)C(=O)N[C@H](C(=O)N[C@@H](C)C(=O)N[C@]1(C)CCCCCCn2cc(nn2)CCC[C@@](C)(C(=O)N[C@@H](CO)C(=O)N[C@@H](C)C(=O)N[C@@H](C)C(N)=O)NC(=O)[C@H](CC2CCC2)NC(=O)[C@H](CCC(N)=O)NC(=O)[C@H](C)NC(=O)[C@H](Cc2c[nH]c3ccccc23)NC(=O)[C@H](Cc2ccc(O)cc2)NC(=O)[C@H](CCC(=O)O)NC1=O)[C@@H](C)O [SP460, Ac-LTA$4rn6EYWAQCba$4a5SAA-NH2]

Ki [3]: < 0.01 µM | Ki [4]: < 0.01 µM
Compound: CC(=O)N[C@@H](CC(C)C)C(=O)N[C@H](C(=O)N[C@@H](Cc1ccccc1)C(=O)N[C@]1(C)CCCCCCn2nnc(c2-c2ccccc2)CCC[C@@](C)(C(=O)N[C@@H](CO)C(=O)N[C@@H](C)C(=O)N[C@@H](C)C(N)=O)NC(=O)[C@H](CC2CCC2)NC(=O)[C@H](CCC(N)=O)NC(=O)[C@H](C)NC(=O)[C@H](Cc2c[nH]c3ccccc23)NC(=O)[C@H](Cc2ccc(O)cc2)NC(=O)[C@H](CCC(=O)O)NC1=O)[C@@H](C)O [SP465, Ac-LTF$4rn6EYWAQCba5Ph-$4a5SAA-NH2]

IC50 [5]: 0.114 µM
Compound: CC(=O)N[C@@H](Cc1ccccc1)C(=O)N[C@]1(C)CCCCCCC=CCCC[C@@](C)(C(=O)N[C@@H](C)C(N)=O)NC(=O)[C@H](CC(C)C)NC(=O)C2(CC2)NC(=O)[C@H](CCC(=O)O)NC(=O)[C@H](Cc2c[nH]c3cc(Cl)ccc23)NC(=O)[C@H](Cc2ccc(O)cc2)NC(=O)[C@H](C)NC1=O [SP-128, Ac- F $r8 A Y 6clW E Ac3c L $ A -NH2] (Ac-F[R8]AY[Trp(6-Cl)]E[Ac3c]L[S5]A-NH2; staple 2-9 (inferred))

IC50 [6]: 0.097 µM | IC50 [5]: 0.0749 µM
Compound: CC(=O)N[C@@H](CC(C)C)C(=O)N[C@H](C(=O)N[C@@H](Cc1ccccc1)C(=O)N[C@]1(C)CCCCCC/C=C/CCC[C@@](C)(C(=O)N[C@@H](CO)C(N)=O)NC(=O)[C@H](CC(C)C)NC(=O)[C@H](CCC(N)=O)NC(=O)[C@H](C)NC(=O)[C@H](Cc2c[nH]c3ccccc23)NC(=O)[C@H](Cc2ccc(O)cc2)NC(=O)[C@H](C)NC1=O)[C@@H](C)O [SP-190, Ac- L T F $er8 A Y W A Q L $e S -NH2] (Ac-LTF[R8]AYWAQL[S5]S-NH2; staple (E) 4-11 (inferred))

IC50 [6]: 0.204 µM
Compound: CC(=O)N[C@@H](Cc1c[nH]c2ccccc12)C(=O)N[C@H](C(=O)N[C@@H](Cc1ccccc1)C(=O)N[C@]1(C)CCCCCCC=CCCC[C@@](C)(C(=O)N[C@@H](CO)C(N)=O)NC(=O)[C@H](CC(C)C)NC(=O)[C@H](CCC(N)=O)NC(=O)[C@H](C)NC(=O)[C@H](Cc2c[nH]c3ccccc23)NC(=O)[C@H](Cc2ccc(O)cc2)NC(=O)[C@H](Cc2c[nH]cn2)NC1=O)[C@@H](C)O [SP-256, Ac- W T F $r8 H Y W A Q L $ S -NH2] (Ac-WTF[R8]HYWAQL[S5]S-NH2; staple 4-11 (inferred))

IC50 [6]: 0.301 µM
Compound: CC(=O)N[C@@H](CC(C)C)C(=O)N[C@H](C(=O)N[C@@H](Cc1ccccc1)C(=O)N[C@]1(C)CCCCCCC=CCCC[C@@](C)(C(=O)N[C@@H](CO)C(N)=O)NC(=O)[C@H](CC(C)C)NC(=O)[C@H](CCC(N)=O)NC(=O)[C@H](C)NC(=O)[C@H](Cc2c[nH]c3ccccc23)NC(=O)[C@H](Cc2ccc(O)cc2)NC(=O)[C@H](C(C)C)NC1=O)[C@@H](C)O [SP-266, Ac- L T F $r8 V Y W A Q L $ S -NH2] (Ac-LTF[R8]VYWAQL[S5]S-NH2; staple 4-11 (inferred))

IC50 [5]: 0.191 µM
Compound: CC(=O)N[C@@H](CC(C)C)C(=O)N[C@H](C(=O)N[C@@H](Cc1ccccc1)C(=O)N[C@]1(C)CCCCCCC=CCCC[C@@](C)(C(=O)N[C@@H](CO)C(N)=O)NC(=O)[C@H](CC(C)C)NC(=O)[C@H](CCC(N)=O)NC(=O)[C@H](C)NC(=O)[C@H](Cc2c[nH]c3ccccc23)NC(=O)[C@H](Cc2ccc(O)cc2)NC(=O)[C@H](Cc2ccccc2)NC1=O)[C@@H](C)O [SP-267, Ac- L T F $r8 F Y W A Q L $ S -NH2] (Ac-LTF[R8]FYWAQL[S5]S-NH2; staple 4-11 (inferred))

IC50 [6]: 0.143 µM | IC50 [5]: 0.0472 µM
Compound: CC(=O)N[C@@H](CC(C)C)C(=O)N[C@H](C(=O)N[C@@H](Cc1ccccc1)C(=O)N[C@]1(C)CCCCCCC=CCCC[C@@](C)(C(=O)N[C@@H](CO)C(N)=O)NC(=O)[C@H](CC(C)C)NC(=O)[C@H](C)NC(=O)[C@H](C)NC(=O)[C@H](Cc2c[nH]c3ccccc23)NC(=O)[C@H](Cc2ccc(O)cc2)NC(=O)[C@H](C)NC1=O)[C@@H](C)O [SP-351, Ac- L T F $r8 A Y W A A L $ S -NH2] (Ac-LTF[R8]AYWAAL[S5]S-NH2; staple 4-11 (inferred))
